Molecules are shown by their SMILES.

The data set is described as follows: photoluminescence quantum yield (fraction); solvent given as SMILES.

Where the note is “in C1CCCCC1”, `COc1ccc2c3c(c4ccc(OC)cc4c2c1)C1(c2ccccc2-c2ccccc21)c1ccccc1-3` displayed a photoluminescence quantum yield of 0.21.

Under “in ClCCl”, `COc1ccc(N2c3sc4ccccc4c3Sc3c2sc2ccccc32)cc1` returned a photoluminescence quantum yield of 0.23.

Turning to `[O-][n+]1c(/C=C/c2ccccc2)nc(Nc2ccccc2)c2c1CCCC2`, the photoluminescence quantum yield (in ClCCl) stood at 0.16.

In the case of `CCN1/C(=C\c2c(-c3ccc(N(C)C)cc3)c(=O)c2=O)C=Cc2ccccc21`, the photoluminescence quantum yield (in C1CCCCC1) was 0.0276, the photoluminescence quantum yield (in Cc1ccccc1) came to 0.0226 and the photoluminescence quantum yield (in ClCCl) is 0.001.

Consider `O=P1(c2ccccc2)C(c2ccc(N(c3ccccc3)c3ccccc3)cc2)=Cc2cc3ccccc3cc21` (centres undefined), for which the photoluminescence quantum yield (in ClCCl) was determined as 0.85.

`CCCCCCOc1cc(N(CC)CC)ccc1/C=C/C(=C(C#N)C#N)c1ccc(N(c2ccccc2)c2ccccc2)cc1` displayed a photoluminescence quantum yield (in ClCCl) of 0.178.

In the case of `C[Si](C)(C)c1ccc([Si](C)(C)C)c2ccccc12`, the photoluminescence quantum yield (in C1CCCCC1) worked out at 0.33.

As for `O=Cc1ccc(/C=C/c2nc(N3CCOCC3)c3c([n+]2[O-])CCCC3)cc1`, under “in ClCCl”, the photoluminescence quantum yield turned out to be 0.025.

As for `CN1/C(=C/C=C(/C=C/c2sc3ccccc3[n+]2C)c2ccc(F)cc2)Sc2ccccc21`, the photoluminescence quantum yield is, setting by setting: (in CCO) 0.1; (in CO) 0.09; (in CS(C)=O) 0.14.

In the case of `O=Cc1ccc2nc(C#Cc3ccc(N(c4ccccc4)c4ccccc4)cc3)sc2c1`, the photoluminescence quantum yield (in Cc1ccccc1) is 1.

Molecule `CCCCCCN(c1ccccc1)c1ccc2c(c1)C(CC)(CC)c1cc(/C=C/c3ccc(/C=C(\C#N)C(=O)O)s3)ccc1-2` had a photoluminescence quantum yield (in C1CCOC1) of 0.458; a photoluminescence quantum yield (in C1COCCO1) of 0.813; a photoluminescence quantum yield (in CC#N) of 0.105; a photoluminescence quantum yield (in CC(C)=O) of 0.251; a photoluminescence quantum yield (in CCOC(C)=O) of 0.443; a photoluminescence quantum yield (in CN(C)C=O) of 0.638. The photoluminescence quantum yield reads like this: (in CS(C)=O) 0.322; (in ClCCl) 0.047.

Under “in C1COCCO1”, `CC(=O)Nc1ccc(C2=C/C(=C\c3ccc(C#N)cc3)C(=O)N2CC(C)C)cc1` yielded a photoluminescence quantum yield of 0.218.

Under “in C1COCCO1”, `c1ccc(-c2nc(-c3ccc(-c4ccc(-c5ccc(-c6nc(-c7ccccc7)c(-c7ccccc7)o6)cc5)cc4)cc3)oc2-c2ccccc2)cc1` registered a photoluminescence quantum yield of 0.73.

For `CCCN1/C(=C/C=C(/C=C/C2=[N+](CCC)c3ccccc3C2(C)C)c2ccc3ccccc3n2)C(C)(C)c2ccccc21`, the photoluminescence quantum yield is 0.18 (in CO), 0.37 (in CS(C)=O) and 0.01 (in O).

`COc1cc(/C=C/c2nc(N3CCOCC3)c3c([n+]2[O-])CCCC3)cc(OC)c1OC`: under “in ClCCl”, the photoluminescence quantum yield was 0.23.

For `COC(=O)C(NC(=O)CCNc1cccc2ccccc12)c1ccccc1` (centres undefined), the photoluminescence quantum yield (in CCO) stood at 0.55.

With `CC(C)[Si](C#Cc1c2ccccc2c(C#C[Si](C(C)C)(C(C)C)C(C)C)c2nc3c(ccc4cc5ccccc5cc43)nc12)(C(C)C)C(C)C`, the photoluminescence quantum yield (in CCCCCC) came to 0.12.

Molecule `C[Si]1(c2ccccc2)C(c2ccc(-n3c4ccccc4c4ccccc43)cc2)=C(c2ccccc2)C(c2ccccc2)=C1c1ccc(-n2c3ccccc3c3ccccc32)cc1` had a photoluminescence quantum yield (in C1CCOC1) of 0.032.

As for `CCCCCCCCCCN1C(=O)c2cc(NCCCOCCO)c3c4c(cc(NCCCOCCO)c(c24)C1=O)C(=O)N(CCCCCCCCCC)C3=O`, the photoluminescence quantum yield by setting is: (in CO) 0.43; (in ClC(Cl)Cl) 0.58.

Regarding `CC(C)(C)c1ccc(C(C)(C)C)c(N2C(=O)c3cccc4c(-c5ccc(-c6ccc(N(c7ccccc7)c7ccccc7)cc6)s5)ccc(c34)C2=O)c1`, the photoluminescence quantum yield (in Cc1ccccc1) was found to be 0.56.

For `CN(C)c1ccc(C2=Nc3scc(-c4ccc(C#N)cc4)[n+]3[B-](F)(F)O2)cc1`, the photoluminescence quantum yield (in C1CCOC1) is 0.23, the photoluminescence quantum yield (in CC#N) is 0.02, the photoluminescence quantum yield (in Cc1ccccc1) turned out to be 0.62 and the photoluminescence quantum yield (in ClCCl) came to 0.61.

For the molecule `CCCCCCCCCCOc1ccc2c3c(oc2c1)C1=C2C(=O)N4C=Cc5c(oc6cc(OCCCCCCCCCC)ccc56)C4=C2C(=O)N1C=C3`, the photoluminescence quantum yield amounted to 0.5 (in CN(C)C=O) and 0.7 (in ClC(Cl)Cl).

`CCN(CC)c1ccc2cc(/C=C/c3ccccc3)c(=O)oc2c1` returned a photoluminescence quantum yield (in CC#N) of 0.85.

Turning to `N#Cc1ccc2nc3c(=O)[nH]c(=O)[nH]c3nc2c1`, the photoluminescence quantum yield (in ClCCCl) came to 0.016.

As for `CC1(C)c2ccccc2N(c2ccc(-c3ccc(C#N)nc3)cc2)c2ccccc21`, the photoluminescence quantum yield by setting is: (in Cc1ccccc1) 0.345; (in N#Cc1ccc2c(c1)c1ccccc1n2-c1cccc(-n2c3ccccc3c3ccccc32)c1) 0.916.

`O=C1[C@@H]2[C@H](C(=O)N1c1cccc3cc4ccccc4cc13)[C@@H]1C=C[C@H]2C1` yielded a photoluminescence quantum yield (in ClC(Cl)Cl) of 0.26.

Regarding `C/C(=C\c1ccc(Cl)cc1)c1nc2ccccc2s1`, the photoluminescence quantum yield was determined as 0.03 (in C1CCCCC1) and 0.005 (in CO).

For `c1ccc(-c2nc(-c3ccc(-c4cccs4)s3)[nH]c2-c2ccccc2)cc1`, the photoluminescence quantum yield (in CC#N) amounted to 0.24.

For the molecule `COc1cc(OC)cc(-c2ccc(-c3ccc(C#N)s3)s2)c1`, the photoluminescence quantum yield came out at 0.09 (in C1CCCCC1); 0.09 (in C1COCCO1); 0.11 (in CC#N); 0.1 (in CC(C)O); 0.1 (in CCCCO); 0.1 (in CCO). The molecule also had a photoluminescence quantum yield (in CCOC(C)=O) of 0.09; a photoluminescence quantum yield (in CN(C)C=O) of 0.12; a photoluminescence quantum yield (in CO) of 0.1; a photoluminescence quantum yield (in CS(C)=O) of 0.16; a photoluminescence quantum yield (in Cc1ccccc1) of 0.09; a photoluminescence quantum yield (in ClC(Cl)Cl) of 0.1. Moreover, the photoluminescence quantum yield is, setting by setting: (in ClCCl) 0.09; (in O) 0.02.

For `COc1ccc(C#Cc2nc3ccccc3nc2-c2ccn(-c3ccccc3)c2)cc1`, the photoluminescence quantum yield (in ClCCl) was found to be 0.24.

Under “in ClCCl”, `CCN(CC)c1ccc2cc(-c3nc4ccccc4n3-c3ccccc3)c(=O)oc2c1` displayed a photoluminescence quantum yield of 0.94.

With `CC(=O)c1ccn2c3c(c(-c4cc[n+](C)cc4)c2c1)CN(C)C3=O`, where the note is “in O”, the photoluminescence quantum yield is 0.093.

With `COc1ccc(-c2csc(/C(C#N)=C/c3ccc(Cl)cc3Cl)n2)cc1`, the photoluminescence quantum yield (in CC#N) was found to be 0.031.

Turning to `c1ccc(-c2nc3c(-c4ccc(N(c5ccccc5)c5ccccc5)cc4)ccc(-c4ccc(N(c5ccccc5)c5ccccc5)cc4)c3nc2-c2ccccc2)cc1`, the photoluminescence quantum yield (in ClC(Cl)Cl) was found to be 0.51.

Turning to `Cc1cc(N(C)C)cc(C)c1/C=C/C=C/c1ccc(C#N)cc1`, the photoluminescence quantum yield (in C1CCOC1) was 0.087; the photoluminescence quantum yield (in CC#N) stood at 0.212; the photoluminescence quantum yield (in CCCCCC) is 0.043; the photoluminescence quantum yield (in CCCCOCCCC) amounted to 0.061; the photoluminescence quantum yield (in CCO) amounted to 0.168; the photoluminescence quantum yield (in CCOCC) amounted to 0.082.

For the molecule `F[B-]1(F)n2c(cc(-c3ccccc3)c2-c2ccccc2)C(c2ccccc2)=C2C=C(c3ccccc3)C(c3ccccc3)=[N+]21`, the photoluminescence quantum yield is 0.33 (in C1CCOC1), 0.34 (in CC#N), 0.64 (in Cc1ccccc1) and 0.4 (in ClCCl).

With `c1ccc2[nH]c(-c3ccc(-c4ccc(-c5ccc(-c6nc7ccccc7[nH]6)cc5)cc4)cc3)nc2c1`, for the setting “in CN(C)C=O”, the photoluminescence quantum yield was 0.88.

In turn, `O=C([O-])c1ccc2cc3cc(C(=O)[O-])ccc3cc2c1` gave a photoluminescence quantum yield (in CN(C)C=O) of 0.11.
